Data from patent US20150045445A1, “3-KETO-N-PROPARGYL-1-AMINOINDAN” (TEVA PHARMACEUTICAL INDUSTRIES, LTD., priority 2009, published 2015).

What was measured:
[1] = Genotoxicity of the by-product; conditions: by-product of rasagiline drug substance production; no test described
[2] = AZILECT Product Label, May 2006; cited from earlier work

Compound | genotoxicity [1] | absolute bioavailability [2]
C#CCNC1CC(=O)c2ccccc21 (centres unmarked) [3-keto-N-propargyl-1-aminoindan] | not genotoxic | 
C#CCN[C@@H]1CCc2ccccc21 [rasagiline, R(+)-N-propargyl-1-aminoindan] |  | about 36%
